{"source": "paper PMC12606464", "about": "“Investigating NFE2L1 activators for targeted protein aggregate clearance: a follow-up study” (RSC Medicinal Chemistry, 2025)", "key": {"SH-SY5Y cells": {"tested_on": "SH-SY5Y cells", "assay": "Rotenone-induced α-synuclein proteotoxicity in SH-SY5Y cells", "format": "cell-based, human", "conditions": "SH-SY5Y expressing α-synuclein-GFP; pre-treatment 4 h (0.312-2.5 μM), rotenone 1.125 μM 24 h; approximately 30% without compounds", "method": "Fig. 3 (A) HEK293 cells were treated with RUN compounds at a concentration of 7.5 μM for 16 hours. DMSO was used as a vehicle control. Proteasome chymotrypsin-like activity was measured in cell lysates at 37 °C. Data came from three biological replicates (n = 3). Statistical analysis was done using ratio paired t-tests corrected for multiple comparisons with Holm–Šídák's method (α = 0.05). *p < 0.05. Detailed results of the analysis are shown in SI Table S7. (B) RUN-89 protects against polyQ-mediated toxicity in an NFE2L1-dependent manner. HCT116 parental cells (WT) and two independent DDI2 knockout clones (KO 04 and KO 11), in which NFE2L1 activation is impaired, were transiently transfected with plasmids encoding non-aggregating EGFP-HttQ23 or aggregation-prone EGFP-HttQ74. Cells were treated with 1 or 3 μM RUN-89 for 48 hours, and viability was measured using the alamarBlue assay. […] Data are shown as the Geomean ± GeoSD from four independent biological replicates (n = 4). […] (C left) The protective effect of RUN compounds was assessed by rotenone-induced α-synuclein proteotoxicity in SH-SY5Y cells, which mimics the PD-like phenotype. […]\nA second stress assay was performed using rotenone, a mitochondrial complex I inhibitor. […] After 4 hours, rotenone (1.125 μM) was added and one day later the viability of the cells was measured. […]"}, "[1]": {"tested_on": "HCT116 cells expressing EGFP-HttQ74", "assay": "PolyQ toxicity assay (EGFP-HttQ74, alamarBlue) in HCT116 WT and DDI2 KO cells", "format": "cell-based, human", "conditions": "48 h", "method": "Fig. 3 (A) HEK293 cells were treated with RUN compounds at a concentration of 7.5 μM for 16 hours. DMSO was used as a vehicle control. Proteasome chymotrypsin-like activity was measured in cell lysates at 37 °C. Data came from three biological replicates (n = 3). Statistical analysis was done using ratio paired t-tests corrected for multiple comparisons with Holm–Šídák's method (α = 0.05). *p < 0.05. Detailed results of the analysis are shown in SI Table S7. […] HCT116 parental cells (WT) and two independent DDI2 knockout clones (KO 04 and KO 11), in which NFE2L1 activation is impaired, were transiently transfected with plasmids encoding non-aggregating EGFP-HttQ23 or aggregation-prone EGFP-HttQ74. Cells were treated with 1 or 3 μM RUN-89 for 48 hours, and viability was measured using the alamarBlue assay. […] Data are shown as the Geomean ± GeoSD from four independent biological replicates (n = 4). Statistical analysis was performed on log2-transformed values using two-way repeated-measures ANOVA followed by Šídak's multiple comparison test. (C right) Parental SH-SY5Y cells (without α-synuclein expression) were treated in the same manner. (C left) The protective effect of RUN compounds was assessed by rotenone-induced α-synuclein proteotoxicity in SH-SY5Y cells, which mimics the PD-like phenotype. Cells were pre-treated with increasing concentrations of RUN compounds (0.312, 0.625, 1.25, and 2.5 μM) for 4 hours and then rotenone (1.125 μM) treatment was done for 24 hours.\nTo further evaluate the protective capacity of RUN-89 in a polyQ aggregation model, we transiently transfected HCT116 parental cells (wt) and DDI2 knockout clones (KO4 and KO11) with plasmids encoding either a non-aggregating EGFP-HttQ23 or an aggregation-prone EGFP-HttQ74 construct. This model is widely used to study Huntington's disease (HD), a prototypical polyglutamine expansion disorder caused by expanded CAG repeats in the huntingtin gene.[67–69] […] Cells were treated with increasing concentrations of RUN-89 (1 and 3 μM) for 48 h, and viability was assessed using the alamarBlue assay (Fig. 3B). […]"}}}
{"smiles": "COc1ccc(/C=C2\\CC(NC(=O)C3CCCC3)C/C(=C\\c3ccc(OC)c(OC)c3)C2=O)cc1OC", "note": "(stereo not drawn) [RUN-89]", "values": [{"measurement": "Cell viability after rotenone treatment", "setting": "SH-SY5Y cells", "value": "up to 70%"}, {"measurement": "Protective effect in DDI2-deficient clones expressing HttQ74", "setting": "[1]; 1 and 3 μM", "value": "strongly reduced"}, {"measurement": "Survival of wild-type cells expressing HttQ74", "setting": "[1]; 1 and 3 μM", "value": "significantly improved survival"}, {"measurement": "Viability of EGFP-HttQ74 cells (mean), KO 04, 1 μM", "setting": "[1]; HCT116 DDI2-/- KO 04, 1 μM, alamarBlue", "value": 41.44}, {"measurement": "Viability of EGFP-HttQ74 cells (mean), KO 04, 3 μM", "setting": "[1]; HCT116 DDI2-/- KO 04, 3 μM, alamarBlue", "value": 16.49}, {"measurement": "Viability of EGFP-HttQ74 cells (mean), KO 11, 1 μM", "setting": "[1]; HCT116 DDI2-/- KO 11, 1 μM, alamarBlue", "value": 59.5}, {"measurement": "Viability of EGFP-HttQ74 cells (mean), KO 11, 3 μM", "setting": "[1]; HCT116 DDI2-/- KO 11, 3 μM, alamarBlue", "value": 37.35}, {"measurement": "Viability of EGFP-HttQ74 cells (mean), WT, 1 μM", "setting": "[1]; HCT116 WT, 1 μM, alamarBlue", "value": 72.36}, {"measurement": "Viability of EGFP-HttQ74 cells (mean), WT, 3 μM", "setting": "[1]; HCT116 WT, 3 μM, alamarBlue", "value": 79.66}]}
